Assays:
DPPH radical scavenging = conditions: 50 µM; control
Method: Compounds were incubated with 2,2-diphenyl-1-picrylhydrazyl (DPPH, Sigma-Aldrich; […]) in ethanol for 30 min. Absorbance was measured at 520 nm using a Multiskan Spectrum Microplate Reader (Thermo Fisher Scientific)[35]. Ascorbic acid (Sigma-Aldrich; 50 µM), used as control, scavenged DPPH radicals by 82.4 ± 1.9%.

[1] = target: T1, human recombinant LTC4 synthase (LTC4S) (Homo sapiens, UniProt Q16873); test: LTC4 synthase activity; type: biochemical; conditions: 10 µM; reference inhibitor
T1 construct: expressed in transfected cells; host or cells: HEK-293 cells stably expressing LTC4S (microsomal membranes)
T1 sequence (Q16873 1-150): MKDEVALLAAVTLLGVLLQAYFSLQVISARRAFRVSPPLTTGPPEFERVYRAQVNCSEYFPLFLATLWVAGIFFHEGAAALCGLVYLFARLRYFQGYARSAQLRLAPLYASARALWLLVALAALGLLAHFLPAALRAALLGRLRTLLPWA
Method: To investigate the effect of LCMs on LTC4S activity, we used microsomal membranes from HEK-293 cells stably expressing LTC4S[70]. […] The conversion of LTA4 to LTC4 methyl esters was initiated by addition of LTA4 methyl ester (Cayman Chemicals; 1 µM). After 10 min at 4 °C, the reaction was terminated by ice-cold methanol (one volume), and LTC-d5 methyl ester (5 ng; Cayman Chemicals) was added as internal standard. LTC4 was extracted and analyzed by UPLC-MS/MS as described for lipid mediators. Vehicle (DMSO)-treated microsomal membranes produced 7.1 ± 0.5 nmol LTC4.

5-LO [2] = target: T2, 5-LO (Homo sapiens, UniProt P09917); test: 5-LO product formation in activated PMNL; type: cell-based; design: Freshly isolated PMNL (1 × 10^7); endogenous in cells; host or cells: human PMNL freshly isolated from leukocyte concentrates; conditions: cell-based; mean ± s.e.m., n = 3; read-out: IC50, activated PMNL (5-LO)
T2 sequence (P09917 1-674): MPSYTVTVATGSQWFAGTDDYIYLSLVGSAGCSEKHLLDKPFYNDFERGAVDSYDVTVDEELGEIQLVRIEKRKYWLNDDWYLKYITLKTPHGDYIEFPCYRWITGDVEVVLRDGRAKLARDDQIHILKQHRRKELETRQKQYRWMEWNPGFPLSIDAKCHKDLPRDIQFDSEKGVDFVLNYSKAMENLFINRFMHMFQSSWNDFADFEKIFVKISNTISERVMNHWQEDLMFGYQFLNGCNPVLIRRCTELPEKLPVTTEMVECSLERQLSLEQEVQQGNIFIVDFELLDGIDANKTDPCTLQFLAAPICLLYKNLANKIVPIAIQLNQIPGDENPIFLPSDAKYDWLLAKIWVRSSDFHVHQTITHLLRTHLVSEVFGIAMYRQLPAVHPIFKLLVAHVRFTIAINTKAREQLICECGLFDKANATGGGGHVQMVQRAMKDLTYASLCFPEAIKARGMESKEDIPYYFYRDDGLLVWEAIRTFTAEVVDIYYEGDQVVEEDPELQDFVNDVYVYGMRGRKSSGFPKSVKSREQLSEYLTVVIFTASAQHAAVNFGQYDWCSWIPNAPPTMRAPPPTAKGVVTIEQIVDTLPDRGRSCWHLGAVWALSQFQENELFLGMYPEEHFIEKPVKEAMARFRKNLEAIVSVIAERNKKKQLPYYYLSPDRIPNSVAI
Description: Human PMNL, monocytes, PBMC, and platelets were freshly isolated from leukocyte concentrates. The protocols for experiments with human blood and blood cells were approved by the ethical commission of the Friedrich-Schiller-University Jena. […] PMNL were recovered from the pellet after hypotonic lysis of erythrocytes. Platelets were obtained from the supernatant and washed with PBS pH 5.9/0.9% NaCl (1:1). […]

15-LO = 15-LO product formation in A23187/AA-activated PMNL; type: cell-based, human; conditions: at 3 µM; mean ± s.e.m., n = 3; n.i. no inhibition
Method: (§1) Cells were washed and medium was exchanged. Freshly isolated PMNL (1 × 10^7) and stably transfected HEK-293 (1 × 10^6) cells were suspended in PBS pH 7.4 containing 1 mg/ml glucose and 1 mM CaCl2. […] A23187- and A23187/AA-treated PMNL and A23187/AA-treated HEK-293 (5-LO_wt), HEK-293 (5-LO_3W) and HEK-293 (5-LO_Arg101Asp) cells produced 135 ± 21, 636 ± 112, 300 ± 59, 133 ± 29, 55 ± 9 ng 5-LO products, respectively. PMNL synthesized 29 ± 6 ng 12-HETE and 97 ± 23 ng 15-HETE when challenged with A23187/AA. 5-LO products from monocytes were analyzed by UPLC-MS/MS.

12-LO = target: T3, 12-LO (Homo sapiens, UniProt P18054); test: 12-LO product formation in A23187/AA-activated PMNL; type: cell-based; conditions: at 3 µM; mean ± s.e.m., n = 3; n.i. no inhibition
T3 construct: 12-HETE (12-LO product from platelets in PMNL preparations); endogenous in cells; host or cells: platelets contaminating human PMNL preparations
T3 sequence (P18054 1-663): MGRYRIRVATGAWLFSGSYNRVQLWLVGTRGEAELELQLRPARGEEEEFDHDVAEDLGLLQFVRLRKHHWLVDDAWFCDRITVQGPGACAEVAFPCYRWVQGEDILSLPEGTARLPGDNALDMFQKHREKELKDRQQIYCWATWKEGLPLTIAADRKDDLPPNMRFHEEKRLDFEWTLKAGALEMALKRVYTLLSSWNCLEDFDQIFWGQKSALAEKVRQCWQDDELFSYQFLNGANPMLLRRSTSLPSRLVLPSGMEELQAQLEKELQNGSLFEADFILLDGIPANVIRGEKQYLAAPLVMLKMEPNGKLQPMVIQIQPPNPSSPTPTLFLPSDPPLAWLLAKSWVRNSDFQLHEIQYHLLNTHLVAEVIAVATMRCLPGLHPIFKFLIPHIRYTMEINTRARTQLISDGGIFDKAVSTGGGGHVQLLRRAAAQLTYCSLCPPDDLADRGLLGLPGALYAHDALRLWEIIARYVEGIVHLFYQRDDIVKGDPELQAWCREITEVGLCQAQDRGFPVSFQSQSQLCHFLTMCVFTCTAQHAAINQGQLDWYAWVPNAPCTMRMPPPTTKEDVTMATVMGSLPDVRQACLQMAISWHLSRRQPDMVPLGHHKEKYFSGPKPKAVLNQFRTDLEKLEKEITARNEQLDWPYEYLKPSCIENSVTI
Method: as §1

[3] = system: peripheral blood mononuclear cells; test: Cell viability of PBMC (MTT assay); type: cell-based, human; conditions: 24 h
Method: The formazan product was solubilized with SDS (10% in 20 mM HCl), and absorbance was measured at 570 nm using a Multiskan Spectrum microplate reader (Thermo Fisher Scientific).

5-LO [4] = target: T2, 5-LO; test: Activity of purified human recombinant 5-LO (cell-free); type: biochemical; design: made in house; host or cells: E. coli Bl21 (DE3); conditions: cell-free; mean ± s.e.m., n = 3; read-out: IC50, human recombinant 5-LO
Method: E. coli Bl21 (DE3) cells were transformed with pT3–5LO plasmid to express human recombinant 5-LO, which was purified by affinity chromatography on an ATP-agarose column. In brief, E. coli was lysed in 50 mM triethanolamine/HCl pH 8.0 plus EDTA (5 mM), soybean trypsin inhibitor (60 µg/ml), phenylmethanesulphonyl fluoride (1 mM), dithiothreitol (1 mM), and lysozyme (1 mg/ml). After sonication (3 × 15 s), the homogenate was centrifuged at 10,000 × g for 15 min and the supernatant again at 40,000 × g for 70 min at 4 °C. The supernatant was applied to an ATP-agarose column (Sigma-Aldrich), and the column was washed with (i) PBS pH 7.4, 1 mM EDTA, (ii) 50 mM phosphate buffer pH 7.4, 0.5 M NaCl, 1 mM EDTA, and (iii) 50 mM phosphate buffer pH 7.4, 1 mM EDTA. 5-LO was eluted with 50 mM phosphate buffer pH 7.4, 1 mM EDTA, 20 mM ATP.
Purified 5-LO (0.5 µg) in PBS pH 7.4 containing EDTA (1 mM) and ATP (1 mM) was pre-incubated with LCMs for 10 min at 4 °C, pre-warmed for 30 s at 37 °C and 5-LO product formation was started by addition of AA (Sigma-Aldrich; 20 µM if not indicated otherwise) plus CaCl2 (2 mM). […] AA was added after incubation for 5 min on ice.

[5] = system: zymosan-induced murine peritonitis; test: Zymosan-induced peritonitis in mice; type: in vivo, mouse; conditions: 10 mg/kg i.p.; 30 min post zymosan; ELISA
Method: Mice were killed by inhalation of CO2 after another 30 min for determination of LTC4 levels and vascular permeability and after 4 h for the analysis of LTB4 levels, lipidomic profiles and immune cell infiltration. Cell infiltration and lipid mediator profiles during resolution were studied after 18 h. Peritoneal exudates were collected and cells counted after vital trypan blue staining. LTC4, LTB4, and PGE2 were analyzed in the exudate by enzyme immunoassays (Enzo Life Sciences, Lörrach, Germany) according to manufacturer's instructions. To assess vascular permeability, Evans blue dye (40 mg/kg in saline, 0.3 ml; Sigma-Aldrich) was injected into the tail vain immediately before the induction of peritonitis. Exudates were centrifuged (3000 × g, 5 min) and the absorbance of the supernatants was measured at 610 nm using a Beckman Coulter DU730 spectrophotometer. To investigate the effect of α-T (1a) on the accumulation of α-T-13'-COOH (4a) in infiltrated leukocytes after peritonitis has been established, vehicle or α-[…].) were given 1 h before and/or 4 h post zymosan injection, and mice were killed after another 1.5 h. Leukocytes were obtained from peritoneal exudates by centrifugation (1200 × g, 10 min, 4 °C).

[6] = cited from earlier work; for plasma levels in humans: ref Mangialasche et al., 2012
[7] = at 1 and 10 µM (one entry for both), n.i. no inhibition

Structure (SMILES) | suppression of LTC4 formation [1] [%] | IC50 (5-LO [2]) [nM] | 12-LO product formation/PMNL, residual activity (12-LO) | IC50 (5-LO [4]) [nM] | DPPH radicals scavenged (DPPH radical scavenging) [%] | 15-LO product formation/PMNL, residual activity (15-LO) | Cell viability/peripheral blood mononuclear cells, residual viability [3, 7] | LTC4 levels in the exudate [5] | plasma levels in humans [6] [µM] | hepatic tissue concentrations ([6]; ref Nagita et al., 1997) [nmol/g] | human plasma level ([6]; ref Nagita et al., 1997) [µM] | Cell viability/peripheral blood mononuclear cells, residual viability ([3]; at 1 µM) | Cell viability/peripheral blood mononuclear cells, residual viability ([3]; at 10 µM)
O=C1O[C@H]([C@@H](O)CO)C(O)=C1O [Ascorbic acid, reference compound] |  |  |  |  | 82.4 ± 1.9 |  |  |  |  |  |  |  | 
Cc1cc(O)c(C)c2c1O[C@](C)(CCC[C@H](C)CCC[C@H](C)CCCC(C)C)CC2 [1b] |  | 57000 ± 2000 | n.i. | 750 ± 150 |  | n.i. | n.i. |  |  |  |  |  | 
Cc1cc(O)cc2c1O[C@](C)(CCC[C@H](C)CCC[C@H](C)CCCC(C)CO)CC2 (stereo partly shown) [2d] |  | 540 ± 20 | 84.8 ± 7.8 % of control | 120 ± 40 |  | 142.8 ± 13.9 % of control | n.i. |  |  |  |  |  | 
Cc1c(C)c2c(c(C)c1O)CC[C@@](C)(CCC[C@H](C)CCC[C@H](C)CCCC(C)C)O2 [1a, α-tocopherol] |  | 808000 ± 159000 | n.i. | > 1000 |  | n.i. | n.i. | significantly less effective | 25 to 35 | 70 to 530 | 14 to 27 |  | 
CC(C)=CCC/C(C)=C/CC/C(C)=C/CC[C@]1(C)CCc2cc(O)cc(C)c2O1 [1h] |  | 60000 ± 15000 | 87.6 ± 8.5 % of control | 170 ± 100 |  | n.i. | n.i. |  |  |  |  |  | 
Cc1cc(O)cc2c1O[C@](C)(CCC[C@H](C)CCC[C@H](C)CCCC(C)C)CC2 [1d] |  | 85000 ± 5000 | n.i. | 310 ± 100 |  | 86.6 ± 15.8 % of control | n.i. |  | 0.01 |  |  |  | 
C/C(=C/CC/C(C)=C/CC/C(C)=C/CC[C@]1(C)CCc2cc(O)c(C)c(C)c2O1)CO [3g] |  | 140 ± 20 |  | 120 ± 30 |  | 168.8 ± 1.2 % of control |  |  |  |  |  | n.i. | 43.7 ± 16.2 % of control

Continued, in another order:

suppression of LTC4 formation [1] [%] | IC50 (5-LO [2]) [nM] | 12-LO product formation/PMNL, residual activity (12-LO) | IC50 (5-LO [4]) [nM] | Structure (SMILES) | DPPH radicals scavenged (DPPH radical scavenging) [%] | 15-LO product formation/PMNL, residual activity (15-LO) | Cell viability/peripheral blood mononuclear cells, residual viability [3, 7] | LTC4 levels in the exudate [5] | plasma levels in humans [6] [µM] | hepatic tissue concentrations ([6]; ref Nagita et al., 1997) [nmol/g] | human plasma level ([6]; ref Nagita et al., 1997) [µM] | Cell viability/peripheral blood mononuclear cells, residual viability ([3]; at 1 µM) | Cell viability/peripheral blood mononuclear cells, residual viability ([3]; at 10 µM)
95.6 ± 0.9 |  |  |  | CC(C)c1ccc2c(c1)c(SC(C)(C)C)c(CC(C)(C)C(=O)O)n2Cc1ccc(Cl)cc1 [MK-886, reference compound] |  |  |  |  |  |  |  |  | 
 | 502000 ± 199000 | n.i. | 910 ± 150 | Cc1c(O)cc2c(c1C)O[C@](C)(CCC[C@H](C)CCC[C@H](C)CCCC(C)C)CC2 [1c] |  | n.i. | n.i. |  |  |  |  |  | 
 | 190 ± 50 | 84.7 ± 4.7 % of control | 350 ± 40 | Cc1c(C)c2c(c(C)c1O)CC[C@@](C)(CCCC(C)CCCC(C)CCCC(C)CO)O2 (stereo partly shown) [2a] |  | 156.7 ± 26.2 % of control | n.i. |  |  |  |  |  | 
 | 1260 ± 330 | n.i. | 150 ± 50 | C/C(=C\CC/C(C)=C/CC/C(C)=C/CC[C@]1(C)CCc2cc(O)cc(C)c2O1)CO [2h] |  | n.i. | n.i. |  |  |  |  |  | 

From paper PMC6148290, “Endogenous metabolites of vitamin E limit inflammation by targeting 5-lipoxygenase” (Nature Communications, 2018)
